{"source": "patent US20130184338A1", "about": "“PHENYLPROPYL CARBAMATE DERIVATIVES FOR USE IN PREVENTING OR TREATING MULTIPLE SCLEROSIS” (Bio-Pharm Solutions Co., Ltd., priority 2011, published 2013)", "key": {"male SD rats": {"test_system": "male SD rats", "assay": "MES (Maximal Electroshock Seizure) test in rats", "details": "for ED50: Rattus norvegicus, po, read-out: Duration of MES test ED50"}, "male ICR mice": {"test_system": "male ICR mice", "assay": "MES (Maximal Electroshock Seizure) test in mice"}, "MOG EAE rat": {"test_system": "MOG EAE rat", "assay": "Anti-multiple sclerosis activity by MOG EAE rat"}, "male mice (ICR) [1]": {"test_system": "male mice (ICR)", "assay": "Muscle relaxation: residence time on rotarod rotating at fixed speed (15 r.p.m.)", "format": "in vivo", "details": "Mus musculus, ip; intraperitoneal, at time of maximum effect; 50% of activity vs vehicle only; read-out: MR test ED50, II = Fixed 15 r.p.m. Rotarod"}, "male mice (ICR) [2]": {"test_system": "male mice (ICR)", "assay": "Muscle relaxation: endurance time on rotarod rotating at accelerated speed", "format": "in vivo", "details": "Mus musculus, ip; intraperitoneal, at time of maximum effect; 50% of activity vs vehicle only; read-out: MR test ED50, I = Acc. Rotarod", "protocol": "(§1) For testing, male mice (ICR) were purchased from ORIENT BIO INC. (Korea), divided into several groups with 6 mice in each group, and were adapted for 4-5 days. The mice having the weight ranging from 19 g to 26 g were employed for the test. The pharmacological effect of the test compounds on muscle relaxation was evaluated by Rotarod test, grip strength test, and muscular force (wire hang) test. All mice were adapted to the test environment at one hour before starting the tests. The pharmacological effects of all the test compounds were evaluated by administration through peritoneal cavity of the mice (10 ul/g, bw).\nAt 24 hours before testing, the mice to be tested were preliminarily trained for 5 minutes on a rod rotating at the rate of 6 revolutions per a minute. The pharmacological effect on muscle relaxation of the test compounds were evaluated by observing the mice on a rod for 5 minutes, where the rod was accelerated from 4 to 40 revolutions per a minute during the test time. The endurance time that each mouse endures on the acceleratedly rotated rod without falling off from the rod was recorded. As test time for evaluation, a maximum of 5 minutes was applied. […] This experimentation was conducted according to the method described in the reference, ‘Monville et al. (2006) Comparison of incremental and accelerating protocol of the rotarod test for the assessment of motor deficits in the 6-OHDA model. J. Neurosci. Meth. 158: 219-223’.\n(§2) The results of muscle relaxation activity of the phenyl carbamate compounds measured in above Experimental Examples 11.2 to 11.5 are shown in following Table 5."}, "male mice (ICR) [3]": {"test_system": "male mice (ICR)", "assay": "Muscle relaxation: grip strength", "format": "in vivo", "details": "Mus musculus, ip; intraperitoneal, at time of maximum effect; 50% of activity vs vehicle only; read-out: MR test ED50, III = Grip strength", "protocol": "as §1\nA grip strength test using the test animals' forelimbs was performed using an instrument equipped with triangle ring and designed so as to easily grip with the forelimbs of experimental animals, manufactured from Ugo Basile Inc. (Ugo Basile, Model47106, Italy). The test was conducted before and after administration of the compounds to evaluate the effects thereof. […] The mouse was made to grip the rod with its forelimbs, and its tail was pulled, where the force at which the mouse detached from the rod was recorded. The instrument indicated the force in grams. All of the mice were given […] for test, and the 3 highest values among the test opportunities were selected and the mean value was used as the test result. This experimentation was conducted according to the method described in the reference, ‘Nevins et al. (1993) Quantitative grip strength assessment as a means of evaluating muscle relaxation in mice. Psychopharmacol. 110: 92-96’.\nas §2"}, "male mice (ICR) [4]": {"test_system": "male mice (ICR)", "assay": "Muscle relaxation: wire hang", "format": "in vivo", "details": "Mus musculus; intraperitoneal, at time of maximum effect; 50% of activity vs vehicle only; read-out: MR test ED50, IV = Wire hang", "protocol": "as §1\nThis experimentation was conducted using a metal wire of 30 cm in length, which was suspended between two pillars at a height of about 40 cm from the bottom covered with a soft pad. […] Each mouse was made to grip the wire using two forelimbs, and the elapse time before the mouse fell off from the wire to the pad on the bottom was recorded in seconds. Each mouse was given 5 opportunities for this test at an interval of 2 minutes period. The highest 3 records among the test opportunities were selected and the mean value was used as the test result. This experimentation was conducted according to the method described in the reference, ‘Jacqueline N. Crawley (1999) Behavioral phenotyping of transgenic and knockout mice: experimental design and evaluation of general health, sensory functions, motor abilities, and specific behavioral tests. Brain Res. 835: 18-26’.\nas §2"}}, "note": "“And” between values parts separate entries of the source, which are not always exact repeats. Equal entries are not always repeated. “Also recorded” adds a separate entry of the source. Where two headings read alike, the source gives them in different places."}
{"compound": "C[C@H](OC(N)=O)[C@@H](O)c1ccccc1Cl", "note": "[Compound 1, 1-(2-chlorophenyl)-(S)-1-hydroxypropyl-(S)-2-carbamate]", "values": [{"measurement": "ED50", "setting": "male SD rats; 0.5 h", "result": 5.9, "unit": "mg/kg"}, {"measurement": "ED50", "setting": "male SD rats; 1 h", "result": 3.3, "unit": "mg/kg"}, {"measurement": "ED50", "setting": "male SD rats; 2 h", "result": 1.4, "unit": "mg/kg"}, {"measurement": "ED50", "setting": "male SD rats; 4 h", "result": 6.9, "unit": "mg/kg"}, {"measurement": "ED50", "setting": "male SD rats; 12 h", "result": 36.1, "unit": "mg/kg"}, {"measurement": "efficacy duration time (MES)", "setting": "male SD rats; rats, oral", "result": "at least 12 hours"}, {"measurement": "ED50", "setting": "male ICR mice; Mus musculus, po, 0.25 h, read-out: Duration of MES test ED50", "result": 21.2, "unit": "mg/kg"}, {"measurement": "ED50", "setting": "male ICR mice; Mus musculus, po, 0.5 h, read-out: Duration of MES test ED50", "result": 22.5, "unit": "mg/kg"}, {"measurement": "ED50", "setting": "male ICR mice; Mus musculus, po, 1 h, read-out: Duration of MES test ED50", "result": 13.3, "unit": "mg/kg"}, {"measurement": "ED50", "setting": "male ICR mice; Mus musculus, po, 2 h, read-out: Duration of MES test ED50", "result": 13, "unit": "mg/kg"}, {"measurement": "ED50", "setting": "male ICR mice; Mus musculus, po, 3 h, read-out: Duration of MES test ED50", "result": 14.7, "unit": "mg/kg"}, {"measurement": "ED50", "setting": "male ICR mice; Mus musculus, po, 4 h, read-out: Duration of MES test ED50", "result": 18.7, "unit": "mg/kg"}, {"measurement": "ED50", "setting": "male ICR mice; Mus musculus, po, 6 h, read-out: Duration of MES test ED50", "result": 30, "unit": "mg/kg"}, {"measurement": "ED50", "setting": "male ICR mice; Mus musculus, po, 8 h, read-out: Duration of MES test ED50", "result": 49.4, "unit": "mg/kg"}, {"measurement": "ED50", "setting": "male ICR mice; Mus musculus, po, 12 h, read-out: Duration of MES test ED50", "result": 119, "unit": "mg/kg"}, {"measurement": "ED50", "setting": "male ICR mice; Mus musculus, po, read-out: MES test (po) ED50", "result": 13, "unit": "mg/kg"}, {"measurement": "efficacy duration time (MES)", "setting": "male ICR mice; mice, oral", "result": "at least 12 hours"}, {"measurement": "body weight gain vs vehicle group", "setting": "MOG EAE rat; 3, 10 and 50 mg/kg p.o. twice a day, days 0-30, p>0.05", "result": "gained weight similarly than vehicle group"}, {"measurement": "Disease incidence", "setting": "MOG EAE rat; all groups (3, 10, 50 mg/kg p.o. twice a day, days 0-29)", "result": 100, "unit": "%"}, {"measurement": "mortality", "setting": "MOG EAE rat; rat, in vivo", "result": "0.0% and 5.0%"}, {"measurement": "CD68 immunoreactivity (% of white matter area) vs vehicle", "setting": "MOG EAE rat; spinal cord C segment, 50 mg/kg, day 30, p<0.05, 50 mg/kg", "result": "significantly smaller than in vehicle group; also recorded: reduced immunoreactivity"}, {"measurement": "CD68 immunoreactivity (% of white matter area) vs vehicle", "setting": "MOG EAE rat; spinal cord T segment, all doses, day 30", "result": "significantly less immunoreactivity; also recorded: significantly reduced immunoreactivity"}, {"measurement": "CD68 immunoreactivity (% of white matter area) vs vehicle", "setting": "MOG EAE rat; spinal cord combined C+T segments, all doses, day 30", "result": "significantly less immunoreactivity; also recorded: significantly reduced immunoreactivity"}, {"measurement": "demyelination area (% of white matter area) vs vehicle", "setting": "MOG EAE rat; spinal cord, all doses (3, 10, 50 mg/kg), all segments, day 30, MBP staining", "result": "significantly less demyelination than vehicle treated animals; also recorded: significantly diminished demyelinated lesion volumes"}, {"measurement": "ED50", "setting": "male mice (ICR) [1]", "result": 23.3, "unit": "mg/kg"}, {"measurement": "ED50", "setting": "male mice (ICR) [2]", "result": 39.7, "unit": "mg/kg"}, {"measurement": "ED50", "setting": "male mice (ICR) [3]", "result": 40.9, "unit": "mg/kg"}, {"measurement": "ED50", "setting": "male mice (ICR) [4]", "result": 13.3, "unit": "mg/kg"}]}
{"compound": "C[C@H](OC(=O)NC1CC1)[C@@H](O)c1ccccc1Cl", "note": "[Compound 18, 1-(2-chlorophenyl)-(S)-1-hydroxypropyl-(R)-2-N-cyclopropylcarbamate]", "values": [{"measurement": "responders at 200 mg/kg", "setting": "male ICR mice; Mus musculus, po, read-out: MES test (po) Protection %", "result": 100, "unit": "%"}, {"measurement": "ED50", "setting": "male mice (ICR) [1]", "result": 61.2, "unit": "mg/kg"}, {"measurement": "ED50", "setting": "male mice (ICR) [2]", "result": 59.2, "unit": "mg/kg"}, {"measurement": "ED50", "setting": "male mice (ICR) [3]", "result": 87.4, "unit": "mg/kg"}, {"measurement": "ED50", "setting": "male mice (ICR) [4]", "result": 29.5, "unit": "mg/kg"}]}
